# Laboratory results as given in the supplement of paper PMC10307832.
# Columns and labels:
# Assay in all cases: relative viability (nuclei count vs DMSO), 5 days (fraction); higher = more cells survive
# Bleomycin + Trametinib = compound: CC1=C(N=C(N=C1N)[C@H](CC(=O)N)NC[C@@H](C(=O)N)N)C(=O)N[C@@H]([C@H](C2=CN=CN2)OC3C(C(C(C(O3)CO)O)O)OC4C(C(C(C(O4)CO)O)OC(=O)N)O)C(=O)N[C@H](C)[C@H]([C@H](C)C(=O)N[C@@H]([C@@H](C)O)C(=O)NCCC5=NC(=CS5)C6=NC(=CS6)C(=O)NCCC[S+](C)C)O [Bleomycin] + CC(=O)Nc1cccc(-n2c(=O)n(C3CC3)c(=O)c3c(Nc4ccc(I)cc4F)n(C)c(=O)c(C)c32)c1 [Trametinib] (partner 0.02 µM); settings: main component drawn
# In short: (§1)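 Lung cancer cell lines in 1536-well plates were dosed by pin tool the day after seeding, either with one drug alone or with a fixed anchor-drug dose plus five library-drug doses (not always all listed) in √10 steps. After 5 days, cells were fixed and their nuclei stained in one step (final 0.05% Triton X-100, 1% formaldehyde, 1 ug/ml Hoechst), then counted on 4× images. Relative viability is the nuclei count in treated wells divided by that in vehicle wells. Values are medians of duplicate plates.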
# Etoposide + Phenformin = compound: COc1cc([C@@H]2c3cc4c(cc3[C@@H](O[C@@H]3O[C@@H]5CO[C@@H](C)O[C@H]5[C@H](O)[C@H]3O)[C@H]3COC(=O)[C@H]23)OCO4)cc(OC)c1O [Etoposide] + N=C(N)NC(=N)NCCc1ccccc1 [Phenformin] (partner 250 µM)
# In short: as §1
# Bleomycin + AZD7762 = compound: CC1=C(N=C(N=C1N)[C@H](CC(=O)N)NC[C@@H](C(=O)N)N)C(=O)N[C@@H]([C@H](C2=CN=CN2)OC3C(C(C(C(O3)CO)O)O)OC4C(C(C(C(O4)CO)O)OC(=O)N)O)C(=O)N[C@H](C)[C@H]([C@H](C)C(=O)N[C@@H]([C@@H](C)O)C(=O)NCCC5=NC(=CS5)C6=NC(=CS6)C(=O)NCCC[S+](C)C)O [Bleomycin] + NC(=O)Nc1cc(-c2cccc(F)c2)sc1C(=O)N[C@H]1CCCNC1 [AZD7762] (partner 0.2 µM); settings: main component drawn
# In short: as §1
# Bleomycin + Pictilisib = compound: CC1=C(N=C(N=C1N)[C@H](CC(=O)N)NC[C@@H](C(=O)N)N)C(=O)N[C@@H]([C@H](C2=CN=CN2)OC3C(C(C(C(O3)CO)O)O)OC4C(C(C(C(O4)CO)O)OC(=O)N)O)C(=O)N[C@H](C)[C@H]([C@H](C)C(=O)N[C@@H]([C@@H](C)O)C(=O)NCCC5=NC(=CS5)C6=NC(=CS6)C(=O)NCCC[S+](C)C)O [Bleomycin] + CS(=O)(=O)N1CCN(Cc2cc3nc(-c4cccc5[nH]ncc45)nc(N4CCOCC4)c3s2)CC1 [Pictilisib] (partner 1 µM); settings: main component drawn
# In short: as §1
Cell Line,relative viability (Bleomycin + Trametinib; first compound 0.01 µM),relative viability (Bleomycin + Trametinib; first compound 0.03162 µM),relative viability (Bleomycin + Trametinib; first compound 0.1 µM),relative viability (Bleomycin + Trametinib; first compound 0.3162 µM),relative viability (Bleomycin + Trametinib; first compound 1 µM),relative viability (Etoposide + Phenformin; first compound 0.01 µM),relative viability (Etoposide + Phenformin; first compound 0.03162 µM),relative viability (Etoposide + Phenformin; first compound 0.1 µM),relative viability (Etoposide + Phenformin; first compound 0.3162 µM),relative viability (Etoposide + Phenformin; first compound 1 µM),relative viability (Bleomycin + AZD7762; first compound 0.01 µM),relative viability (Bleomycin + AZD7762; first compound 0.03162 µM),relative viability (Bleomycin + AZD7762; first compound 0.1 µM),relative viability (Bleomycin + AZD7762; first compound 0.3162 µM),relative viability (Bleomycin + AZD7762; first compound 1 µM),relative viability (Bleomycin + Pictilisib; first compound 0.01 µM),relative viability (Bleomycin + Pictilisib; first compound 0.03162 µM),relative viability (Bleomycin + Pictilisib; first compound 0.1 µM),relative viability (Bleomycin + Pictilisib; first compound 0.3162 µM),relative viability (Bleomycin + Pictilisib; first compound 1 µM)
PC-14,0.243,0.205,0.133,0.0541,0.0419,0.621,0.662,0.485,0.372,0.203,0.254,0.347,0.187,0.0884,0.0848,0.369,0.259,0.159,0.0359,0.0457
NCI-H1755,0.734,0.726,0.78,0.665,0.61,0.63,0.671,0.597,0.589,0.495,0.41,0.495,0.36,0.353,0.311,0.429,0.498,0.385,0.282,0.247
HCC-78,0.575,0.679,0.651,0.632,0.593,0.708,0.824,0.582,0.499,0.226,0.607,0.683,0.599,0.528,0.493,0.201,0.213,0.204,0.199,0.159
NCI-H441,0.398,0.408,0.431,0.298,0.357,0.835,0.976,0.587,0.275,0.198,1.05,0.977,1.17,0.689,0.775,,0.439,0.482,0.316,0.267
NCI-H322M,0.477,0.524,0.479,0.385,0.504,0.766,0.881,0.658,0.666,0.378,0.529,0.523,0.564,0.436,0.416,0.49,0.493,0.491,0.4,0.421
NCI-H2087,0.204,0.146,0.176,0.177,0.135,0.407,0.508,0.435,0.278,0.143,0.981,1.2,1.31,0.976,0.512,0.766,0.874,0.775,0.236,0.247
NCI-H2126,0.525,0.583,0.594,0.52,0.508,0.524,0.534,0.427,0.413,0.236,0.932,0.963,1.15,0.894,0.922,0.498,0.471,0.501,0.391,0.365
LC-2-ad,0.736,0.674,0.541,0.291,0.243,0.602,0.559,0.456,0.344,0.268,0.761,0.775,0.644,0.316,0.26,0.255,0.368,0.292,0.173,0.106
NCI-H1915,0.282,0.295,0.215,0.165,0.128,0.38,0.361,0.429,0.346,0.324,0.53,0.552,0.314,0.221,0.137,0.575,0.65,0.535,0.247,0.146
NCI-H1793,0.442,0.413,0.382,0.262,0.194,0.329,0.47,,0.394,0.159,0.316,0.564,0.341,0.159,0.177,0.398,0.314,0.312,0.233,0.169
LXF-289,0.599,0.664,0.634,0.459,0.2,0.568,0.534,0.585,0.421,0.153,1.01,1.07,0.928,0.419,0.143,0.713,0.799,0.685,0.358,0.15
PC-3 [JPC-3],0.68,0.722,0.617,0.449,0.433,0.456,0.453,0.478,0.434,0.374,0.727,0.691,0.768,0.513,0.428,0.681,0.681,0.768,0.569,0.466
NCI-H1666,0.717,0.783,0.76,0.533,0.581,0.513,0.571,0.507,0.398,0.363,0.972,0.695,0.57,0.512,0.486,0.428,0.375,0.391,0.183,0.256
NCI-H2085,0.549,0.514,0.384,0.243,0.226,0.748,0.78,0.532,0.547,0.322,0.896,0.967,0.828,0.301,0.464,0.427,0.386,0.364,0.29,0.293
NCI-H1734,0.518,0.537,0.397,0.263,0.163,0.366,0.468,0.324,0.37,0.233,0.485,0.449,0.325,0.21,0.151,0.382,0.411,0.357,0.267,0.22
EMC-BAC-2,,0.6,0.535,0.306,0.29,0.424,0.483,0.309,0.24,0.197,0.96,1.05,1.08,0.607,0.415,0.498,0.489,0.427,0.282,0.222
NCI-H1993,0.493,0.476,0.459,0.391,0.346,0.502,0.571,0.528,0.51,0.412,0.723,0.822,0.739,0.491,0.517,0.647,0.807,0.794,0.681,0.688
NCI-H596,0.674,0.562,0.423,0.38,0.379,0.774,0.875,0.584,0.788,0.522,1.06,1.03,0.891,0.349,0.398,0.379,0.419,0.329,0.268,0.261
NCI-H650,0.909,0.993,0.8,0.352,0.18,0.445,0.508,0.394,0.363,0.226,0.949,1.07,0.723,0.515,0.36,0.628,0.764,0.728,0.483,0.25
NCI-H1792,0.462,0.396,0.356,0.317,0.189,0.177,0.189,,0.257,0.0965,0.615,0.635,0.716,0.253,0.141,0.301,0.231,0.217,0.102,0.122
ChaGo-K-1,0.775,0.744,0.704,0.547,0.366,0.423,0.546,0.471,0.282,0.169,0.785,0.824,0.808,0.692,0.504,,0.728,0.655,0.406,0.217
LOU-NH91,0.669,0.547,0.484,0.409,0.357,0.692,0.756,0.692,0.653,0.404,0.715,0.667,0.576,0.421,0.369,0.53,0.493,0.432,0.392,0.325
NCI-H3122,0.257,0.247,0.231,0.185,0.187,0.351,0.382,0.377,0.281,0.197,0.972,0.991,0.966,0.379,0.33,0.642,0.591,0.577,0.243,0.36
LCLC-97TM1,0.169,0.195,0.16,0.169,0.106,0.454,0.487,0.439,0.328,0.184,0.135,0.141,0.102,0.0831,0.0741,0.141,0.119,0.141,0.0993,0.0953
NCI-H647,0.35,0.217,0.158,0.114,0.111,0.386,0.592,0.509,0.245,0.094,0.166,0.284,0.112,0.0842,0.0575,0.251,0.254,0.191,0.105,0.0791
NCI-H838,0.432,0.246,0.186,0.154,0.118,0.517,0.64,0.44,0.395,0.183,0.701,0.68,0.661,0.594,0.649,0.414,0.28,0.18,0.156,0.202
H3255,0.575,0.506,0.629,0.485,0.357,0.35,0.404,0.353,0.322,0.305,0.905,0.819,0.713,0.55,0.401,0.442,0.414,0.431,0.287,0.276
NCI-H1437,0.475,0.411,0.678,0.439,0.276,0.265,0.342,0.357,0.233,0.2,1.04,1.12,1.14,0.765,0.746,0.47,0.407,0.24,0.146,0.224
LU99A,0.485,0.485,0.438,0.22,0.173,0.898,0.992,0.589,0.579,0.16,0.298,0.261,0.203,0.157,0.121,0.249,0.233,0.191,0.152,0.137
